Measurements reported in patent EP0681475B1 (priority 1993, dated 1994).
Where two headings read alike, the source gives them in different places.

Key:
[1] = system: Vascular smooth muscle cells (BO54); assay: Scratch-migration assay; type: cell-based, baboon; settings: 0.1 µg/ml
Description: Scratch assays to determine the extent of smooth muscle cell migration inhibition by cytochalasin B were performed in accordance with the following protocol: Vascular smooth muscle cells (BO54) were derived from explants of baboon aortic smooth muscle, as described in Example 2. The cells were grown in flat bottom, six well tissue culture plates, which hold about 5 ml of medium. The vascular smooth muscle cells were plated at 200,000 cells/well and placed at 37°C in a humidified 5% CO2 incubator for 18 hours. The wells were then scratched with a sterile portion of a single edge razor blade that was held by clamp or pliers and was brought aseptically into contact with the bottom of the well at a 90° angle.The cells from a small area along the scratch were removed by a sterile cotton tipped applicator while the blade was in contact with the bottom of the well.
After incubation, the presence of cells in the "scratched" area is indicative of cell migration across the scratch line.
Briefly, a stock solution of cytochalasin B (Sigma Chemical Co.) in dimethyl sulfoxide (DMSO) at 1 mg/ml was prepared. Test dilutions of cytochalasin B or control medium were added. […]
The migration results are expressed as "Grade in the Cleared Area of the Well / Grade in an Undisturbed Region of the Well." The toxicity values represent a grade for all cells in each well.

[2] = system: vascular smooth muscle cells; type: in vivo, pig
pig femoral arteries = settings: in vivo
[3] = system: Vascular smooth muscle cells; assay: In vitro recovery of migration after clearance of the agent; type: cell-based; settings: cells regenerate enough polymerized actin
[4] = system: Vascular smooth muscle cells
[5] = system: Vascular smooth muscle (BO54) cells; type: cell-based, baboon
[6] = system: Vascular smooth muscle (BO54) cells; type: cell-based, baboon; remark: listed apart in the source

Compound: cytochalasin B
- migration grade following removal of the therapeutic agent ([1]; even after 10 days of continuous exposure): +3 to +4
- migration grade into the cleared area adjacent to the scratch ([1]; exposure): +1 to +2
- BRDU labeling grade ([2]; 24 hours following balloon trauma, pretrauma baseline grade 1): 1 (1 = ≤ 1/high power field(HPF))
- effect on luminal area in dose response study (pig femoral arteries): significant threshold effect
- incidence of mural microthrombi (pig femoral arteries): decreased
- lumen area in the test region compared to the normal control segment of the same artery (pig femoral arteries): approximately two times as large
- luminal area compared to arteries treated with other test agents or controls (pig femoral arteries): larger luminal area
- time to resume migration after cells clear the agent [3]: ≤ 24 h
- Morphological cytotoxicity grade ([4]; 0.01ug, Continuous 24 hrs (first listing, 24 hr pulse series)): 0
- Morphological cytotoxicity grade ([4]; 0.01ug, continuous 24 hrs (second listing, long term continuous series)): 0
- Morphological cytotoxicity grade ([4]; 0.1 ug, Continuous 24 hrs (first listing, 24 hr pulse series)): 1
- Morphological cytotoxicity grade ([4]; 0.1 ug, continuous 24 hrs (second listing, long term continuous series)): 0
- cytotoxicity grade ([4]; 1 µg/ml, anti-migration/contraction effective dose, 1 = minimal): 1
- Morphological cytotoxicity grade ([4]; 1 ug, Continuous 24 hrs (first listing, 24 hr pulse series)): 3
- Morphological cytotoxicity grade ([4]; 1 ug, continuous 24 hrs (second listing, long term continuous series)): 3

Compound: CN[C@@H]1C[C@H]2O[C@@](C)([C@@H]1OC)n1c3ccccc3c3c4c(c5c6ccccc6n2c5c31)C(=O)NC4 [staurosporin]
- minimum effective dose (MED) [5]: 1 ng/mL
- minimum effective dose (MED) [6]: 1 ng/mL
- BRDU labeling grade ([2]; pig, in vivo): 1 (key: 1 = ≤ 1/high power field(HPF); 2 = 2 to 5/HPF; 3 = > 5 to ≤ 10/HPF; 4 = > 10/HPF)
